Results reported in patent US11753433B2, “Methods of synthesizing substituted purine compounds” (Epizyme, Inc., priority 2013, dated 2023).

How the values were obtained:
Solution stability = assay type: physicochemical
Description: 0.1 mg/ml solutions of Form B were prepared in five buffers, including 0.01N HCl (pH 2), 50 mM sodium citrate (pH 4), 50 mM sodium citrate (pH 6), 50 mM sodium phosphate (pH 8), and 50 mM sodium carbonate (pH 10). Methanol was added as a co-solvent to dissolve Form B in buffers (i.e., 10% (v/v) in pH 2, 4, and 6 buffers, 20% (v/v) in pH 8 buffer, and 30% (v/v) in pH 10 buffer). Each buffer solution containing Form B was stored at 3 different temperatures: 25° C., 37° C., and 50° C. Aliquots were taken for HPLC analysis after 1 day and 7 days. pH values were also measured before and after the stability experiments.

[1] = Solid-state photostability; assay type: physicochemical
Description: The solid-state photostability of EP-1 trihydrate (x is 3) was assessed upon exposure to UV/Vis light according to ICH guidelines. Loss of claim %, loss of area %, and degradates were evaluated versus dark control samples.
Solid-State Photostability: Weighed ˜5 mg Form B into glass vials with 2 vials covered with foil as the controls. Put these 2 samples with their controls into chamber and expose them to Vis (10 Kilo lux) for 120 hrs followed by UV (10 W/m^2) for 20 hrs (per ICH guidelines). At the end of Vis, take 1 sample and 1 control out for analysis and the others were taken out after both Vis and UV exposure.

[2] = Bulk control (covered with foil), Vis Stability (1.2 Mil lux-hours)
[3] = Bulk control (covered with foil), Vis-UV stability (1.2 Mil lux-hours + 200 Watt-hours/m^2)
[4] = Bulk, Vis Stability (1.2 Mil lux-hours)
[5] = Bulk, Vis-UV stability (1.2 Mil lux-hours + 200 Watt-hours/m^2)

% area (Solution stability; pH 2, 25° C., 24 h): 98.7% | % claim (Solution stability; pH 2, 25° C., 24 h): 97.1% | pH (Solution stability; pH 2, 25° C., 24 h): 2.1 | % area (Solution stability; pH 2, 25° C., 7 days): 98.5% | % claim (Solution stability; pH 2, 25° C., 7 days): 99.1% | pH (Solution stability; pH 2, 25° C., 7 days): 2.1 | % area (Solution stability; pH 2, 37° C., 24 h): 98.7% | % claim (Solution stability; pH 2, 37° C., 24 h): 96.8% | pH (Solution stability; pH 2, 37° C., 24 h): 2.1 | % area (Solution stability; pH 2, 37° C., 7 days): 98.4% | % claim (Solution stability; pH 2, 37° C., 7 days): 97.5% | pH (Solution stability; pH 2, 37° C., 7 days): 2.1 | % area (Solution stability; pH 2, 50° C., 24 h): 98.3% | % claim (Solution stability; pH 2, 50° C., 24 h): 97.0% | pH (Solution stability; pH 2, 50° C., 24 h): 2.1 | % area (Solution stability; pH 2, 50° C., 7 days): 98.4% | % claim (Solution stability; pH 2, 50° C., 7 days): 97.0% | pH (Solution stability; pH 2, 50° C., 7 days): 2.1 | degradation in solution (Solution stability; pH 2-10 buffers, 25-50° C., up to 7 days): less than 5% | % area (Solution stability; pH 4, 25° C., 24 h): 99.4% | % claim (Solution stability; pH 4, 25° C., 24 h): 97.4% | pH (Solution stability; pH 4, 25° C., 24 h): 4.2 | % area (Solution stability; pH 4, 25° C., 7 days): 99.6% | % claim (Solution stability; pH 4, 25° C., 7 days): 100.2% | pH (Solution stability; pH 4, 25° C., 7 days): 4.2 | % area (Solution stability; pH 4, 37° C., 24 h): 99.4% | % claim (Solution stability; pH 4, 37° C., 24 h): 97.6% | pH (Solution stability; pH 4, 37° C., 24 h): 4.1 | % area (Solution stability; pH 4, 37° C., 7 days): 99.5% | % claim (Solution stability; pH 4, 37° C., 7 days): 99.0% | pH (Solution stability; pH 4, 37° C., 7 days): 4.1 | % area (Solution stability; pH 4, 50° C., 24 h): 99.4% | % claim (Solution stability; pH 4, 50° C., 24 h): 97.6% | pH (Solution stability; pH 4, 50° C., 24 h): 4.1 | % area (Solution stability; pH 4, 50° C., 7 days): 99.5% | % claim (Solution stability; pH 4, 50° C., 7 days): 98.7% | pH (Solution stability; pH 4, 50° C., 7 days): 4.2 | % area (Solution stability; pH 6, 25° C., 24 h): 99.2% | % claim (Solution stability; pH 6, 25° C., 24 h): 98.0% | pH (Solution stability; pH 6, 25° C., 24 h): 6.2 | % area (Solution stability; pH 6, 25° C., 7 days): 99.5% | % claim (Solution stability; pH 6, 25° C., 7 days): 100.0% | pH (Solution stability; pH 6, 25° C., 7 days): 6.2 | % area (Solution stability; pH 6, 37° C., 24 h): 99.3% | % claim (Solution stability; pH 6, 37° C., 24 h): 97.9% | pH (Solution stability; pH 6, 37° C., 24 h): 6.2 | % area (Solution stability; pH 6, 37° C., 7 days): 99.4% | % claim (Solution stability; pH 6, 37° C., 7 days): 99.0% | pH (Solution stability; pH 6, 37° C., 7 days): 6.3 | % area (Solution stability; pH 6, 50° C., 24 h): 99.3% | % claim (Solution stability; pH 6, 50° C., 24 h): 98.1% | pH (Solution stability; pH 6, 50° C., 24 h): 6.2 | % area (Solution stability; pH 6, 50° C., 7 days): 99.5% | % claim (Solution stability; pH 6, 50° C., 7 days): 98.9% | pH (Solution stability; pH 6, 50° C., 7 days): 6.2 | % area (Solution stability; pH 8, 25° C., 24 h): 99.2% | % claim (Solution stability; pH 8, 25° C., 24 h): 98.0% | pH (Solution stability; pH 8, 25° C., 24 h): 8.2 | % area (Solution stability; pH 8, 25° C., 7 days): 99.5% | % claim (Solution stability; pH 8, 25° C., 7 days): 99.8% | pH (Solution stability; pH 8, 25° C., 7 days): 8.2 | % area (Solution stability; pH 8, 37° C., 24 h): 99.5% | % claim (Solution stability; pH 8, 37° C., 24 h): 98.4% | pH (Solution stability; pH 8, 37° C., 24 h): 8.2 | % area (Solution stability; pH 8, 37° C., 7 days): 99.5% | % claim (Solution stability; pH 8, 37° C., 7 days): 99.3% | pH (Solution stability; pH 8, 37° C., 7 days): 8.3 | % area (Solution stability; pH 8, 50° C., 24 h): 99.5% | % claim (Solution stability; pH 8, 50° C., 24 h): 98.0% | pH (Solution stability; pH 8, 50° C., 24 h): 8.3 | % area (Solution stability; pH 8, 50° C., 7 days): 99.5% | % claim (Solution stability; pH 8, 50° C., 7 days): 98.8% | pH (Solution stability; pH 8, 50° C., 7 days): 8.3 | % area (Solution stability; pH 10, 25° C., 24 h): 99.4% | % claim (Solution stability; pH 10, 25° C., 24 h): 98.0% | pH (Solution stability; pH 10, 25° C., 24 h): 10.9 | % area (Solution stability; pH 10, 25° C., 7 days): 99.4% | % claim (Solution stability; pH 10, 25° C., 7 days): 99.7% | pH (Solution stability; pH 10, 25° C., 7 days): 10.9 | % area (Solution stability; pH 10, 37° C., 24 h): 99.4% | % claim (Solution stability; pH 10, 37° C., 24 h): 98.2% | pH (Solution stability; pH 10, 37° C., 24 h): 10.9 | % area (Solution stability; pH 10, 37° C., 7 days): 99.4% | % claim (Solution stability; pH 10, 37° C., 7 days): 99.0% | pH (Solution stability; pH 10, 37° C., 7 days): 10.9 | % area (Solution stability; pH 10, 50° C., 24 h): 99.5% | % claim (Solution stability; pH 10, 50° C., 24 h): 97.9% | pH (Solution stability; pH 10, 50° C., 24 h): 11.0 | % area (Solution stability; pH 10, 50° C., 7 days): 99.4% | % claim (Solution stability; pH 10, 50° C., 7 days): 98.9% | pH (Solution stability; pH 10, 50° C., 7 days): 10.9 | % area [1, 2]: 99.7% | % claim [1, 2]: 100.0% | % area [1, 3]: 99.8% | % claim [1, 3]: 100.0% | % area [1, 4]: 99.8% | % claim [1, 4]: 101.1% | % area [1, 5]: 99.8% | % claim [1, 5]: 99.6%
Structure (SMILES): CC(C)N(C[C@H]1O[C@@H](n2cnc3c(N)ncnc32)[C@H](O)[C@@H]1O)[C@H]1C[C@@H](CCc2nc3cc(C(C)(C)C)ccc3[nH]2)C1 [Form B, (2R,3R,4S,5R)-2-(6-amino-9H-purin-9-yl)-5-((((1r,3S)-3-(2-(5-(tert-butyl)-1H-benzo[d]imidazol-2-yl)ethyl)cyclobutyl)(isopropyl)amino)methyl)tetrahydrofuran-3,4-diol trihydrate]
solid-state photostability (in words) ([1]; bulk, full ICH photostability exposure): stable upon exposure to full ICH photostability requirement
